Results as given in ChEMBL document CHEMBL4308841, “Synthesis, in vitro antiproliferative activity, and kinase inhibitory effects of pyrazole-containing diarylureas and diarylamides” (Eur J Med Chem, 2018).

How the values were obtained:
UACC-257 = assay: Growth inhibition of human UACC257 cells assessed as cell growth at 0.01 uM incubated for 48 hrs by sulforhodamine B assay relative to control; assay type: functional; conditions: UACC-257, 48 h, read-out: Activity
HL-60(TB) [1] = assay: Growth inhibition of human HL-60(TB) cells incubated for 48 hrs by sulforhodamine B assay; assay type: functional, cell-based; conditions: HL-60, 48 h
SN12C [2] = assay: Growth inhibition of human SN12C cells assessed as cell growth at 0.1 uM incubated for 48 hrs by sulforhodamine B assay relative to control; assay type: functional; conditions: read-out: Activity
SF-539 [3] = assay: Growth inhibition of human SF539 cells incubated for 48 hrs by sulforhodamine B assay; assay type: functional, cell-based; conditions: SF-539, 48 h
HT-29 = assay: Growth inhibition of human HT-29 cells assessed as cell growth at 0.01 uM incubated for 48 hrs by sulforhodamine B assay relative to control; assay type: functional; conditions: HT-29, 48 h, read-out: Activity
SF-295 = assay: Growth inhibition of human SF295 cells assessed as cell growth at 1 uM incubated for 48 hrs by sulforhodamine B assay relative to control; assay type: functional; conditions: SF-295, 48 h, read-out: Activity
HCT-15 = assay: Growth inhibition of human HCT15 cells assessed as cell growth at 100 uM incubated for 48 hrs by sulforhodamine B assay relative to control; assay type: functional; conditions: HCT-15, 48 h, read-out: Activity
OVCAR-3 = assay: Growth inhibition of human OVCAR3 cells assessed as cell growth at 0.1 uM incubated for 48 hrs by sulforhodamine B assay relative to control; assay type: functional; conditions: OVCAR-3, 48 h, read-out: Activity
RXF 393 = assay: Growth inhibition of human RXF393 cells assessed as cell growth at 0.01 uM incubated for 48 hrs by sulforhodamine B assay relative to control; assay type: functional; conditions: RXF 393, 48 h, read-out: Activity
OVCAR-4 = assay: Growth inhibition of human OVCAR4 cells assessed as cell growth at 100 uM incubated for 48 hrs by sulforhodamine B assay relative to control; assay type: functional; conditions: OVCAR-4, 48 h, read-out: Activity
SNB-75 [4] = assay: Growth inhibition of human SNB75 cells assessed as cell growth at 100 uM incubated for 48 hrs by sulforhodamine B assay relative to control; assay type: functional; conditions: SNB-75, 48 h, read-out: Activity
NCI-H322M [5] = assay: Growth inhibition of human NCI-H322M cells assessed as cell growth at 0.1 uM incubated for 48 hrs by sulforhodamine B assay relative to control; assay type: functional; conditions: read-out: Activity
CAKI-1 = assay: Growth inhibition of human Caki1 cells assessed as cell growth at 1 uM incubated for 48 hrs by sulforhodamine B assay relative to control; assay type: functional; conditions: CAKI-1, 48 h, read-out: Activity
MCF7 [6] = assay: Growth inhibition of human MCF7 cells incubated for 48 hrs by sulforhodamine B assay; assay type: functional, cell-based; conditions: MCF7, 48 h
SNB-75 [7] = assay: Growth inhibition of human SNB75 cells incubated for 48 hrs by sulforhodamine B assay; assay type: functional, cell-based; conditions: SNB-75, 48 h
HL-60(TB) [8] = assay: Growth inhibition of human HL-60(TB) cells assessed as cell growth at 1 uM incubated for 48 hrs by sulforhodamine B assay relative to control; assay type: functional; conditions: HL-60, 48 h, read-out: Activity
Hs-578T [9] = assay: Growth inhibition of human Hs578T cells incubated for 48 hrs by sulforhodamine B assay; assay type: functional, cell-based
IGROV-1 = assay: Growth inhibition of human IGROV1 cells assessed as cell growth at 0.01 uM incubated for 48 hrs by sulforhodamine B assay relative to control; assay type: functional; conditions: IGROV-1, 48 h, read-out: Activity
HCT-116 = assay: Growth inhibition of human HCT116 cells assessed as cell growth at 1 uM incubated for 48 hrs by sulforhodamine B assay relative to control; assay type: functional; conditions: HCT-116, 48 h, read-out: Activity
Hs-578T [10] = assay: Growth inhibition of human Hs578T cells assessed as cell growth at 1 uM incubated for 48 hrs by sulforhodamine B assay relative to control; assay type: functional; conditions: read-out: Activity
NCI-H23 = assay: Growth inhibition of human NCI-H23 cells incubated for 48 hrs by sulforhodamine B assay; assay type: functional, cell-based; conditions: NCI-H23, 48 h
SR = assay: Growth inhibition of human SR cells assessed as cell growth at 0.1 uM incubated for 48 hrs by sulforhodamine B assay relative to control; assay type: functional; conditions: read-out: Activity
SF-539 [11] = assay: Growth inhibition of human SF539 cells assessed as cell growth at 100 uM incubated for 48 hrs by sulforhodamine B assay relative to control; assay type: functional; conditions: SF-539, 48 h, read-out: Activity
SK-OV-3 = assay: Growth inhibition of human SKOV3 cells assessed as cell growth at 0.01 uM incubated for 48 hrs by sulforhodamine B assay relative to control; assay type: functional; conditions: SK-OV-3, 48 h, read-out: Activity
SK-MEL-2 = assay: Growth inhibition of human SK-MEL-2 cells assessed as cell growth at 0.01 uM incubated for 48 hrs by sulforhodamine B assay relative to control; assay type: functional; conditions: SK-MEL-2, 48 h, read-out: Activity
NCI-H322M [12] = assay: Growth inhibition of human NCI-H322M cells assessed as cell growth at 1 uM incubated for 48 hrs by sulforhodamine B assay relative to control; assay type: functional; conditions: read-out: Activity
MCF7 [13] = assay: Growth inhibition of human MCF7 cells assessed as cell growth at 0.01 uM incubated for 48 hrs by sulforhodamine B assay relative to control; assay type: functional; conditions: MCF7, 48 h, read-out: Activity
NCI-H226 = assay: Growth inhibition of human NCI-H226 cells assessed as cell growth at 100 uM incubated for 48 hrs by sulforhodamine B assay relative to control; assay type: functional; conditions: NCI-H226, 48 h, read-out: Activity
SN12C [14] = assay: Growth inhibition of human SN12C cells assessed as cell growth at 1 uM incubated for 48 hrs by sulforhodamine B assay relative to control; assay type: functional; conditions: read-out: Activity
SNB-19 = assay: Growth inhibition of human SNB19 cells assessed as cell growth at 0.01 uM incubated for 48 hrs by sulforhodamine B assay relative to control; assay type: functional; conditions: SNB-19, 48 h, read-out: Activity
[15] = read-out: LC50 (the source's name)
[16] = read-out: pLC50 (the source's name) (converted)

Structure (SMILES): COc1cc(Cl)cc(-c2nn(-c3cccc(NC(=O)Nc4ccc(Cl)c(Cl)c4)c3)cc2-c2ccncc2)c1
- growth at 0.01 µM (UACC-257): 96%
- GI50 (HL-60(TB) [1]; read-out: GI50): 2.19 µM
- LC50 (HL-60(TB) [1]; read-out: LC50): > 100 µM
- TGI (HL-60(TB) [1]; read-out: TGI): 55.8 µM
- GI50 (HL-60(TB) [1]; read-out: pGI50 (converted)): 2.19 µM
- LC50 (HL-60(TB) [1]; read-out: pLC50 (converted)): > 100 µM
- TGI (HL-60(TB) [1]; read-out: pTGI (converted)): 5.62 µM
- growth at 0.1 µM (SN12C [2]): 100%
- GI50 (SF-539 [3]; read-out: GI50): 2.5 µM
- CC50 (SF-539 [3]; [15]): > 100 µM
- TGI (SF-539 [3]; read-out: TGI): 13.2 µM
- GI50 (SF-539 [3]; read-out: pGI50 (converted)): 2.57 µM
- CC50 (SF-539 [3]; [16]): > 100 µM
- TGI (SF-539 [3]; read-out: pTGI (converted)): 13.2 µM
- growth at 0.01 µM (HT-29): 103%
- growth at 1 µM (SF-295): 70%
- growth at 100 µM (HCT-15): -9%
- growth at 0.1 µM (OVCAR-3): 101%
- growth at 0.01 µM (RXF 393): 100%
- growth at 100 µM (OVCAR-4): -4%
- growth at 100 µM (SNB-75 [4]): -3%
- growth at 0.1 µM (NCI-H322M [5]): 90%
- growth at 1 µM (CAKI-1): 79%
- GI50 (MCF7 [6]; read-out: GI50): 2.56 µM
- LC50 (MCF7 [6]; read-out: LC50): > 100 µM
- TGI (MCF7 [6]; read-out: TGI): 13.2 µM
- GI50 (MCF7 [6]; read-out: pGI50 (converted)): 2.57 µM
- LC50 (MCF7 [6]; read-out: pLC50 (converted)): > 100 µM
- TGI (MCF7 [6]; read-out: pTGI (converted)): 13.2 µM
- GI50 (SNB-75 [7]; read-out: GI50): 2.11 µM
- CC50 (SNB-75 [7]; [15]): > 100 µM
- TGI (SNB-75 [7]; read-out: TGI): 45.6 µM
- GI50 (SNB-75 [7]; read-out: pGI50 (converted)): 2.14 µM
- CC50 (SNB-75 [7]; [16]): > 100 µM
- TGI (SNB-75 [7]; read-out: pTGI (converted)): 49 µM
- growth at 1 µM (HL-60(TB) [8]): 91%
- GI50 (Hs-578T [9]; read-out: GI50): 3.59 µM
- CC50 (Hs-578T [9]; [15]): > 100 µM
- TGI (Hs-578T [9]; read-out: TGI): > 100 µM
- GI50 (Hs-578T [9]; read-out: pGI50 (converted)): 3.89 µM
- CC50 (Hs-578T [9]; [16]): > 100 µM
- TGI (Hs-578T [9]; read-out: pTGI (converted)): > 100 µM
- growth at 0.01 µM (IGROV-1): 98%
- growth at 1 µM (HCT-116): 71%
- growth at 1 µM (Hs-578T [10]): 99%
- LC50 (NCI-H23; read-out: LC50): > 100 µM
- GI50 (NCI-H23; read-out: pGI50 (converted)): 2.63 µM
- LC50 (NCI-H23; read-out: pLC50 (converted)): > 100 µM
- TGI (NCI-H23; read-out: pTGI (converted)): 9.12 µM
- growth at 0.1 µM (SR): 51%
- growth at 100 µM (SF-539 [11]): -40%
- growth at 0.01 µM (SK-OV-3): 100%
- growth at 0.01 µM (SK-MEL-2): 96%
- growth at 1 µM (NCI-H322M [12]): 88%
- growth at 0.01 µM (MCF7 [13]): 94%
- growth at 100 µM (NCI-H226): 2%
- growth at 1 µM (SN12C [14]): 87%
- growth at 0.01 µM (SNB-19): 92%
